These results are taken from the supplement of paper PMC11962398.

Compound in assay [1]: T1, C[C@H]1CNCCN1c1nccc(-c2noc3c2CCC[C@@]32CCCc3sc(N)c(C#N)c32)n1 [BI-2493]
The note with it: 5 days. The procedure:
(§1)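 PRISM pooled barcoded cancer cell line viability screen (Broad Institute) with BI-2493 at 8 doses in threefold dilutions from 0.00457 to 10 µmol/L, 5-day treatment; curves fitted per cell line. IC50 is undefined (placeholder) for resistant lines. AUC is capped at 1, and sensitivity is reported as 1 − AUC.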

Compound in assay [2]: T1, BI-2493
Kind of assay: 1 - AUC of viability dose-response curve (sensitivity) (fraction); higher = more sensitive. The note with it: 5 days. The procedure: as §1

For “LAMA84_HAEMATOPOIETIC_AND_LYMPHOID_TISSUE”, the “IC50 of cell viability” value in the assay with BI-2493 [1] is 0.76 µM. Moreover, the “1 - AUC of viability dose-response curve” value with BI-2493 [2] worked out at 0.34.

Take LC1SQSF_LUNG: the “IC50 of cell viability” value with BI-2493 [1] was above 10 µM. Besides, the “1 - AUC of viability dose-response curve” value in the assay with BI-2493 [2] is 0.255.

On to LCLC103H_LUNG, for which, in the assay with BI-2493 [1], the “IC50 of cell viability” value came out at 8.64 µM. In the assay with BI-2493 [2], the “1 - AUC of viability dose-response curve” value came out at 0.0229.

Consider LI7_LIVER, for which the “IC50 of cell viability” value with BI-2493 [1] turned out to be 1.52 µM. Further, the “1 - AUC of viability dose-response curve” value with BI-2493 [2] came to 0.213.

On to LMSU_STOMACH, for which, in the assay with BI-2493 [1], the “IC50 of cell viability” value turned out to be 5.54 µM. Moreover, the “1 - AUC of viability dose-response curve” value with BI-2493 [2] came out at 0.103.

On to LN18_CENTRAL_NERVOUS_SYSTEM, for which, in the assay with BI-2493 [1], the “IC50 of cell viability” value was 6.48 µM. The “1 - AUC of viability dose-response curve” value with BI-2493 [2] stood at 0.0792.

On to LN229_CENTRAL_NERVOUS_SYSTEM, for which the “IC50 of cell viability” value in the assay with BI-2493 [1] stood at 8.48 µM. The “1 - AUC of viability dose-response curve” value in the assay with BI-2493 [2] was 0.0706.

With LN382_CENTRAL_NERVOUS_SYSTEM, the “IC50 of cell viability” value with BI-2493 [1] was 8.95 µM. The “1 - AUC of viability dose-response curve” value with BI-2493 [2] stood at 0.0249.

Take LN464_CENTRAL_NERVOUS_SYSTEM: the “IC50 of cell viability” value in the assay with BI-2493 [1] is 4.83 µM. The “1 - AUC of viability dose-response curve” value with BI-2493 [2] stood at 0.0968.

As for LNCAPCLONEFGC_PROSTATE, in the assay with BI-2493 [1], the “IC50 of cell viability” value came out at 3.64 µM. In the assay with BI-2493 [2], the “1 - AUC of viability dose-response curve” value amounted to 0.152.

As to LNZ308_CENTRAL_NERVOUS_SYSTEM, the “IC50 of cell viability” value with BI-2493 [1] came out at 7.52 µM. The “1 - AUC of viability dose-response curve” value with BI-2493 [2] turned out to be 0.142.

LOUNH91_LUNG: the “IC50 of cell viability” value in the assay with BI-2493 [1] is above 10 µM. In addition, the “1 - AUC of viability dose-response curve” value in the assay with BI-2493 [2] was determined as 0.189.

With LOVO_LARGE_INTESTINE, the “IC50 of cell viability” value in the assay with BI-2493 [1] came to 1.17 µM. For the same test system, the “1 - AUC of viability dose-response curve” value with BI-2493 [2] stood at 0.246.

In the case of LOXIMVI_SKIN, in the assay with BI-2493 [1], the “IC50 of cell viability” value is 8.63 µM. In addition, the “1 - AUC of viability dose-response curve” value with BI-2493 [2] came to 0.0241.

Turning to LPS141_SOFT_TISSUE, the “IC50 of cell viability” value with BI-2493 [1] is above 10 µM. Moreover, in the assay with BI-2493 [2], the “1 - AUC of viability dose-response curve” value was 0.0281.

With LS180_LARGE_INTESTINE, the “IC50 of cell viability” value in the assay with BI-2493 [1] was determined as 1.08 µM. Also, the “1 - AUC of viability dose-response curve” value with BI-2493 [2] came out at 0.244.

As to LS513_LARGE_INTESTINE, the “IC50 of cell viability” value with BI-2493 [1] was 0.175 µM. In the assay with BI-2493 [2], the “1 - AUC of viability dose-response curve” value came to 0.494.

LS1034_LARGE_INTESTINE: the “IC50 of cell viability” value with BI-2493 [1] came to 0.575 µM. The “1 - AUC of viability dose-response curve” value with BI-2493 [2] worked out at 0.337.

In the case of LS_AUTONOMIC_GANGLIA, in the assay with BI-2493 [1], the “IC50 of cell viability” value is 3.67 µM. Further, in the assay with BI-2493 [2], the “1 - AUC of viability dose-response curve” value came to 0.125.

As to LU99_LUNG, in the assay with BI-2493 [1], the “IC50 of cell viability” value was 8.77 µM. Further, the “1 - AUC of viability dose-response curve” value in the assay with BI-2493 [2] is 0.0228.

On to LUDLU1_LUNG, for which, in the assay with BI-2493 [1], the “IC50 of cell viability” value stood at 4.54 µM. The “1 - AUC of viability dose-response curve” value in the assay with BI-2493 [2] is 0.143.

Consider LXF289_LUNG, for which the “IC50 of cell viability” value with BI-2493 [1] was 8.04 µM. For the same test system, the “1 - AUC of viability dose-response curve” value with BI-2493 [2] stood at 0.103.

Take M059K_CENTRAL_NERVOUS_SYSTEM: in the assay with BI-2493 [1], the “IC50 of cell viability” value was 9.49 µM. The “1 - AUC of viability dose-response curve” value with BI-2493 [2] was 0.00953.

Consider MALME3M_SKIN, for which the “IC50 of cell viability” value with BI-2493 [1] turned out to be 6.19 µM. For the same test system, the “1 - AUC of viability dose-response curve” value in the assay with BI-2493 [2] came to 0.0805.

For MB1_THYROID, the “IC50 of cell viability” value in the assay with BI-2493 [1] turned out to be 5.5 µM. Further, the “1 - AUC of viability dose-response curve” value in the assay with BI-2493 [2] is 0.165.

“MC116_HAEMATOPOIETIC_AND_LYMPHOID_TISSUE”: in the assay with BI-2493 [1], the “IC50 of cell viability” value came to 5.28 µM. Further, the “1 - AUC of viability dose-response curve” value in the assay with BI-2493 [2] is 0.0718.

Turning to MCC26_SKIN, the “IC50 of cell viability” value with BI-2493 [1] was above 10 µM. The “1 - AUC of viability dose-response curve” value with BI-2493 [2] was 0.0203.

Regarding MCC142_SKIN, the “IC50 of cell viability” value with BI-2493 [1] was 9.48 µM. In addition, in the assay with BI-2493 [2], the “1 - AUC of viability dose-response curve” value is 0.0347.

With MCF7_BREAST, in the assay with BI-2493 [1], the “IC50 of cell viability” value is 8.66 µM. In addition, the “1 - AUC of viability dose-response curve” value with BI-2493 [2] was 0.0329.

Consider MDAMB175VII_BREAST, for which, in the assay with BI-2493 [1], the “IC50 of cell viability” value was found to be 8.51 µM. Moreover, the “1 - AUC of viability dose-response curve” value with BI-2493 [2] came out at 0.0449.

As to MDAMB231_BREAST, the “IC50 of cell viability” value with BI-2493 [1] is 7.4 µM. The “1 - AUC of viability dose-response curve” value with BI-2493 [2] amounted to 0.0666.

MDAMB361_BREAST: in the assay with BI-2493 [1], the “IC50 of cell viability” value is above 10 µM. In addition, the “1 - AUC of viability dose-response curve” value with BI-2493 [2] was determined as 0.14.

For the test system MDAMB435S_SKIN, in the assay with BI-2493 [1], the “IC50 of cell viability” value was determined as 4.3 µM. For the same test system, in the assay with BI-2493 [2], the “1 - AUC of viability dose-response curve” value was 0.0956.

On to MDAMB436_BREAST, for which the “IC50 of cell viability” value with BI-2493 [1] is above 10 µM. The “1 - AUC of viability dose-response curve” value with BI-2493 [2] came out at 0.0282.

With MDAMB453_BREAST, the “IC50 of cell viability” value with BI-2493 [1] amounted to 5.47 µM. Also, the “1 - AUC of viability dose-response curve” value with BI-2493 [2] turned out to be 0.115.

Regarding MDAPCA2B_PROSTATE, the “IC50 of cell viability” value in the assay with BI-2493 [1] is above 10 µM. Besides, the “1 - AUC of viability dose-response curve” value with BI-2493 [2] is 0.118.

Take MDST8_LARGE_INTESTINE: in the assay with BI-2493 [1], the “IC50 of cell viability” value was 9.82 µM. For the same test system, in the assay with BI-2493 [2], the “1 - AUC of viability dose-response curve” value amounted to 0.00776.
